Source: patent publication US20190216830A1, “OPHTHALMIC COMPOSITIONS” (Aciont Inc., priority 2017, published 2019)
Where “and” joins values, the source holds several entries; their conditions need not be identical. Equal values may be shown once.

How the values were obtained:
treated eyes (right eye) = conditions: rabbit, in vivo
[1] = Toxicokinetic study: plasma DSP and DEX by LC-MS after single device application; format: in vivo, New Zealand White rabbits; conditions: after DSP application via device; all four regimens
[2] = tested on: rabbit coronary microvessel endothelium; conditions: cited from earlier work

Ocular findings in treated eyes (conjunctival injection, discharge, corneal haze) (treated eyes (right eye)) | Compound | Tmax of DEX in plasma [1] [min] | Concentration that can inhibit prostaglandin release [2]
transient and mild in nature | C[C@@H]1C[C@H]2[C@@H]3CCC4=CC(=O)C=C[C@]4(C)[C@@]3(F)[C@@H](O)C[C@]2(C)[C@@]1(O)C(=O)COP(=O)(O)O [DSP, Dexamethasone sodium phosphate] |  | 
 | C[C@@H]1C[C@H]2[C@@H]3CCC4=CC(=O)C=C[C@]4(C)[C@@]3(F)[C@@H](O)C[C@]2(C)[C@@]1(O)C(=O)CO [DEX, dexamethasone] | 30 | 10^−7 M and ~40 ng/mL
